pIC50: −log10 of the molar value.
Molecular target: Glutathione S-transferase omega-1 (Homo sapiens) (UniProt P78417)
Assay: IC50 of human GSTO1 inhibition by gel ABPP – biochemical, SE-Rh probe, in-gel fluorescence, powder samples, late-stage follow-up (AID 463081)
Conditions: recombinant GSTO1, SE-Rh probe labeling

Glutathione S-transferase omega-1 (Homo sapiens), sequence (P78417 whole entry, looked up): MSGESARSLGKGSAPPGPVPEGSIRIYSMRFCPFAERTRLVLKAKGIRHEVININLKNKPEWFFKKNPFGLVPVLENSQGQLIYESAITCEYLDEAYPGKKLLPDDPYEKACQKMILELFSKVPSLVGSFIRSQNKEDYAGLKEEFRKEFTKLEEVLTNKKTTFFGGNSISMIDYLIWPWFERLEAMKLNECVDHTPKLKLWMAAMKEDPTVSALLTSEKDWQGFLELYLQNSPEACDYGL

**Q.** How did the pIC50 turn out when `COc1ccc(C(C(=O)NC2CCCCC2)N(C(=O)CCl)c2ccc(Cl)cc2)cc1` (stereo unspecified) was run?
**A.** 7.66
